Test results published in the NIST ThermoML archive (doi:10.1016/j.jct.2017.10.004).

Experiment: xn = mol fraction of the nth substance listed
Details: 100 kPa, Liquid; for electrical conductivity: Alternating current cell with electrodes; for viscosity: Capillary tube (Ostwald / Ubbelohde) method; for mass density: Vibrating tube method

Cn1cc[n+](C)c1.O=S(=O)([N-]S(=O)(=O)C(F)(F)F)C(F)(F)F [1,3-dimethylimidazolium bis((trifluoromethyl)sulfonyl)amide] + O=C1CCCO1
Details	electrical conductivity [S/m]	mass density [kg/m3]	viscosity [mPa·s]
298.15 K, x1 = 0.05124	1.13	1190.03	2.27
298.15 K, x1 = 0.09948	1.58	1240.94	2.86
298.15 K, x1 = 0.1551	1.75	1289.73	3.61
298.15 K, x1 = 0.2007	1.77	1323.77	4.44
298.15 K, x1 = 0.2991	1.73	1383.3	6.56
298.15 K, x1 = 0.4002	1.6	1430.37	9.39
298.15 K, x1 = 0.4998	1.47	1467.09	12.79
298.15 K, x1 = 0.6127	1.29	1500.46	17.69
298.15 K, x1 = 0.7009	1.17	1522	22.05
298.15 K, x1 = 0.8002	1.05	1542.63	27.52
298.15 K, x1 = 0.8997	0.905	1560.16	33.41
298.15 K, x1 = 1	0.774	1575.42	39.43
303.15 K, x1 = 0.05124	1.22	1185.01	2.08
303.15 K, x1 = 0.09948	1.72	1235.89	2.61
303.15 K, x1 = 0.1551	1.9	1284.67	3.24
303.15 K, x1 = 0.2007	1.94	1318.66	4
303.15 K, x1 = 0.2991	1.9	1378.16	5.81
303.15 K, x1 = 0.4002	1.76	1425.2	8.35
303.15 K, x1 = 0.4998	1.63	1461.93	11.04
303.15 K, x1 = 0.6127	1.45	1495.28	15.09
303.15 K, x1 = 0.7009	1.32	1516.83	18.61
303.15 K, x1 = 0.8002	1.19	1537.44	22.9
303.15 K, x1 = 0.8997	1.04	1554.97	27.66
303.15 K, x1 = 1	0.915	1570.25	32.51
308.15 K, x1 = 0.05124	1.32	1180.03	1.85
308.15 K, x1 = 0.09948	1.85	1230.85	2.39
308.15 K, x1 = 0.1551	2.06	1279.57	3.02
308.15 K, x1 = 0.2007	2.09	1313.53	3.62
308.15 K, x1 = 0.2991	2.07	1372.98	5.23
308.15 K, x1 = 0.4002	1.93	1419.99	7.3
308.15 K, x1 = 0.4998	1.79	1456.71	9.7
308.15 K, x1 = 0.6127	1.61	1490.05	12.98
308.15 K, x1 = 0.7009	1.47	1511.6	16
308.15 K, x1 = 0.8002	1.34	1532.21	19.53
308.15 K, x1 = 0.8997	1.18	1549.75	23.46
308.15 K, x1 = 1	1.06	1565.01	27.47
313.15 K, x1 = 0.05124	1.4	1175.06	1.71
313.15 K, x1 = 0.09948	1.98	1225.8	2.2
313.15 K, x1 = 0.1551	2.19	1274.45	2.77
313.15 K, x1 = 0.2007	2.25	1308.37	3.3
313.15 K, x1 = 0.2991	2.23	1367.77	4.7
313.15 K, x1 = 0.4002	2.09	1414.76	6.5
313.15 K, x1 = 0.4998	1.95	1451.46	8.6
313.15 K, x1 = 0.6127	1.76	1484.8	11.46
313.15 K, x1 = 0.7009	1.61	1506.34	13.89
313.15 K, x1 = 0.8002	1.48	1526.95	16.86
313.15 K, x1 = 0.8997	1.32	1544.49	20.08
313.15 K, x1 = 1	1.2	1559.73	23.43
318.15 K, x1 = 0.05124	1.5	1170.08	1.62
318.15 K, x1 = 0.09948	2.12	1220.75	2.04
318.15 K, x1 = 0.1551	2.35	1269.35	2.57
318.15 K, x1 = 0.2007	2.42	1303.25	3.03
318.15 K, x1 = 0.2991	2.4	1362.59	4.27
318.15 K, x1 = 0.4002	2.25	1409.55	5.81
318.15 K, x1 = 0.4998	2.12	1446.23	7.64
318.15 K, x1 = 0.6127	1.92	1479.57	10.05
318.15 K, x1 = 0.7009	1.77	1501.11	12.18
318.15 K, x1 = 0.8002	1.65	1521.73	14.75
318.15 K, x1 = 0.8997	1.49	1539.27	17.45
318.15 K, x1 = 1	1.35	1554.49	20.25
323.15 K, x1 = 0.05124	1.59	1165.1	1.52
323.15 K, x1 = 0.09948	2.25	1215.71	1.89
323.15 K, x1 = 0.1551	2.51	1264.27	2.39
323.15 K, x1 = 0.2007	2.59	1298.14	2.79
323.15 K, x1 = 0.2991	2.59	1357.45	3.89
323.15 K, x1 = 0.4002	2.45	1404.4	5.3
323.15 K, x1 = 0.4998	2.31	1441.07	6.82
323.15 K, x1 = 0.6127	2.11	1474.41	8.92
323.15 K, x1 = 0.7009	1.96	1495.96	10.71
323.15 K, x1 = 0.8002	1.82	1516.59	12.9
323.15 K, x1 = 0.8997	1.67	1534.13	15.17
323.15 K, x1 = 1	1.51	1549.34	17.72
